The test system of the test is L1210 leukemia ip in BDF1 mice, survival T/C. Kind of test: NCI In Vivo Anticancer Drug Screen. Data for tumor model L1210 Leukemia (intraperitoneal) in B6D2F1 (BDF1) mice. Particulars: higher = longer survival. A digest of the protocol: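 Mice bearing the transplanted tumor received compound or vehicle. Survival of the treated group was divided by that of the vehicle-treated control group to give the ratio.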

The mark [1] stands for this setting: endpoint: mean survival time, dose: 200.0 mg/kg/injection, schedule: Q04DX003 (ip), vehicle: saline with Tween-80.
Where [2] appears, read: endpoint: mean survival time, dose: 400.0 mg/kg/injection, schedule: Q04DX003 (ip), vehicle: saline with Tween-80.
Where [3] appears, read: endpoint: mean survival time, dose: 100.0 mg/kg/injection, schedule: Q01DX001 (ip), vehicle: saline.
The mark [4] stands for this setting: endpoint: mean survival time, dose: 200.0 mg/kg/injection, schedule: Q01DX001 (ip), vehicle: saline.
Where [5] appears, read: endpoint: mean survival time, dose: 400.0 mg/kg/injection, schedule: Q01DX001 (ip), vehicle: saline.
The mark [6] stands for this setting: endpoint: mean survival time, dose: 50.0 mg/kg/injection, schedule: Q01DX009 (ip), vehicle: saline.

From PubChem BioAssay AID248 (DTP/NCI, 2004) come the findings set out here.

Values joined by “and” are separate entries in the source; they are usually repeats but may differ in a detail not shown here. Equal values may be shown once. Toxic doses and inconclusive results are not listed.

`O=C[C@@H](CO)O[C@H](C=O)n1cnc2c(=O)[nH]cnc21`: the T/C reads like this: (endpoint: mean survival time, dose: 35.0 mg/kg/injection, schedule: Q01DX009 (ip), vehicle: saline) 116 % of control; (endpoint: mean survival time, dose: 35.0 mg/kg/injection, schedule: Q01DX009 (ip), vehicle: water) 122 % of control; (endpoint: mean survival time, dose: 35.0 mg/kg/injection, schedule: Q01DX Z (ip), vehicle: water) 120 % of control; (endpoint: mean survival time, dose: 70.0 mg/kg/injection, schedule: Q01DX009 (ip), vehicle: saline) 188 % of control; (endpoint: mean survival time, dose: 70.0 mg/kg/injection, schedule: Q01DX009 (ip), vehicle: water) 155 % of control; (endpoint: mean survival time, dose: 79.0 mg/kg/injection, schedule: Q01DX009 (oral), vehicle: saline) 93 % of control. For the same molecule, the T/C reads like this: (endpoint: mean survival time, dose: 80.0 mg/kg/injection, schedule: Q01DX009 (ip), vehicle: saline) 167 % of control; (endpoint: mean survival time, dose: 98.0 mg/kg/injection, schedule: Q01DX006 (ip), vehicle: saline) 219 % of control; (endpoint: mean survival time, dose: 98.0 mg/kg/injection, schedule: Q ##X009 (ip), vehicle: saline) 227 % of control; (endpoint: mean survival time, dose: 98.0 mg/kg/injection, schedule: Q## X Z (ip), vehicle: saline) 227 % of control; (endpoint: mean survival time, dose: 119.0 mg/kg/injection, schedule: Q01DX009 (oral), vehicle: saline) 110 % of control; (endpoint: mean survival time, dose: 120.0 mg/kg/injection, schedule: Q01DX009 (ip), vehicle: saline) 167 % of control and 188 % of control. Further, the T/C runs as follows: (endpoint: mean survival time, dose: 125.0 mg/kg/injection, schedule: Q01DX009 (ip), vehicle: saline with Tween-80) 161 % of control; (endpoint: mean survival time, dose: 140.0 mg/kg/injection, schedule: Q01DX006 (ip), vehicle: saline) 205 % of control; (endpoint: mean survival time, dose: 140.0 mg/kg/injection, schedule: Q01DX009 (ip), vehicle: saline) 176 % of control and 184 % of control; (endpoint: mean survival time, dose: 140.0 mg/kg/injection, schedule: Q01DX009 (ip), vehicle: water) 250 % of control; (endpoint: mean survival time, dose: 140.0 mg/kg/injection, schedule: Q01DX Z (ip), vehicle: water) 253 % of control; (endpoint: mean survival time, dose: 140.0 mg/kg/injection, schedule: Q ##X009 (ip), vehicle: saline) 246 % of control. For the same molecule, the T/C by setting is: (endpoint: mean survival time, dose: 140.0 mg/kg/injection, schedule: Q## X Z (ip), vehicle: saline) 246 % of control; (endpoint: mean survival time, dose: 150.0 mg/kg/injection, schedule: Q01DX009 (ip), vehicle: saline with Tween-80) 206 % of control; (endpoint: mean survival time, dose: 175.0 mg/kg/injection, schedule: Q01DX009 (ip), vehicle: saline with Tween-80) 215 % of control; (endpoint: mean survival time, dose: 178.0 mg/kg/injection, schedule: Q01DX009 (oral), vehicle: saline) 102 % of control; (endpoint: mean survival time, dose: 180.0 mg/kg/injection, schedule: Q01DX009 (ip), vehicle: saline) 227 % of control and 251 % of control; (endpoint: mean survival time, dose: 200.0 mg/kg/injection, schedule: Q01DX009 (ip), vehicle: saline with Tween-80) 439 % of control. For the same molecule, the T/C was 165 % of control under setting [1]; 427 % of control (endpoint: mean survival time, dose: 225.0 mg/kg/injection, schedule: Q01DX009 (ip), vehicle: saline with Tween-80); 172 % of control (endpoint: mean survival time, dose: 250.0 mg/kg/injection, schedule: Q04DX003 (ip), vehicle: saline with Tween-80); 110 % of control (endpoint: mean survival time, dose: 267.0 mg/kg/injection, schedule: Q01DX009 (oral), vehicle: saline); 182 % of control (endpoint: mean survival time, dose: 270.0 mg/kg/injection, schedule: Q01DX009 (ip), vehicle: saline); 89 % of control (endpoint: mean survival time, dose: 280.0 mg/kg/injection, schedule: Q01DX009 (ip), vehicle: saline). Further, the T/C by setting is: (endpoint: mean survival time, dose: 300.0 mg/kg/injection, schedule: Q04DX003 (ip), vehicle: saline with Tween-80) 245 % of control; (endpoint: mean survival time, dose: 350.0 mg/kg/injection, schedule: Q04DX003 (ip), vehicle: saline with Tween-80) 318 % of control; (endpoint: mean survival time, dose: 400.0 mg/kg/injection, schedule: Q01DX009 (oral), vehicle: saline) 102 % of control; under setting [2], 401 % of control; (endpoint: mean survival time, dose: 600.0 mg/kg/injection, schedule: Q01DX009 (oral), vehicle: saline) 104 % of control; (endpoint: median survival time, dose: 108.0 mg/kg/injection, schedule: Q01DX009 (ip), vehicle: water) 166 % of control. For the same molecule, where the note is “endpoint: median survival time, dose: 180.0 mg/kg/injection, schedule: Q01DX009 (ip), vehicle: water”, the T/C was 461 % of control.
Turning to `Oc1ccccc1N=Cc1ccccc1`, the T/C runs as follows: under setting [3], 94 % of control; under setting [4], 100 % of control; under setting [5], 103 % of control.
Consider `COC(=O)C1C=Cc2ccccc21` (configuration not stated), for which the T/C by setting is: (endpoint: mean survival time, dose: 100.0 mg/kg/injection, schedule: Q04DX003 (ip), vehicle: saline with Tween-80) 104 % of control; under setting [1], 93 % of control; under setting [2], 102 % of control.
As for `C1CN(P2(N3CC3)=NP(N3CC3)(N3CC3)=NP(N3CC3)(N3CC3)=N2)CCO1` (configuration not stated), the T/C by setting is: (endpoint: mean survival time, dose: 6.25 mg/kg/injection, schedule: Q01DX009 (ip), vehicle: saline) 116 % of control and 119 % of control; (endpoint: mean survival time, dose: 12.5 mg/kg/injection, schedule: Q01DX009 (ip), vehicle: saline) 120 % of control; (endpoint: mean survival time, dose: 25.0 mg/kg/injection, schedule: Q01DX001 (ip), vehicle: saline) 114 % of control and 119 % of control; (endpoint: mean survival time, dose: 25.0 mg/kg/injection, schedule: Q01DX009 (ip), vehicle: saline) 156 % of control and 164 % of control; under setting [6], 99 % of control and 104 % of control and 87 % of control; under setting [3], 181 % of control and 185 % of control. The T/C under setting [4] is 89 % of control.
Regarding `O=[N+]([O-])c1ccc(NCc2ccccc2)nc1`, the T/C by setting is: (endpoint: mean survival time, dose: 100.0 mg/kg/injection, schedule: Q04DX002 (ip), vehicle: saline with Tween-80) 91 % of control; (endpoint: mean survival time, dose: 111.0 mg/kg/injection, schedule: Q01DX Z (ip), vehicle: carboxymethylcellulose (CMC)) 111 % of control; (endpoint: mean survival time, dose: 166.7 mg/kg/injection, schedule: Q01DX Z (ip), vehicle: carboxymethylcellulose (CMC)) 98 % of control; (endpoint: mean survival time, dose: 200.0 mg/kg/injection, schedule: Q04DX002 (ip), vehicle: saline with Tween-80) 97 % of control; (endpoint: mean survival time, dose: 250.0 mg/kg/injection, schedule: Q01DX Z (ip), vehicle: carboxymethylcellulose (CMC)) 101 % of control; (endpoint: mean survival time, dose: 375.0 mg/kg/injection, schedule: Q01DX Z (ip), vehicle: carboxymethylcellulose (CMC)) 100 % of control. In addition, where the note is “endpoint: mean survival time, dose: 400.0 mg/kg/injection, schedule: Q04DX002 (ip), vehicle: saline with Tween-80”, the T/C is 103 % of control.
`CCN(CC)C(=O)C(N)Cc1ccc(OC)c(N(CCCl)CCCl)c1` (configuration not stated): the T/C by setting is: (endpoint: mean survival time, dose: 6.0 mg/kg/injection, schedule: Q01DX009 (ip), vehicle: saline) 103 % of control; (endpoint: mean survival time, dose: 10.0 mg/kg/injection, schedule: Q01DX009 (ip), vehicle: saline) 103 % of control; (endpoint: mean survival time, dose: 14.0 mg/kg/injection, schedule: Q01DX009 (ip), vehicle: saline) 112 % of control; (endpoint: mean survival time, dose: 22.0 mg/kg/injection, schedule: Q01DX009 (ip), vehicle: saline) 105 % of control; (endpoint: mean survival time, dose: 33.0 mg/kg/injection, schedule: Q01DX001 (ip), vehicle: saline) 123 % of control; (endpoint: mean survival time, dose: 33.0 mg/kg/injection, schedule: Q01DX009 (ip), vehicle: saline) 108 % of control. Besides, the T/C is 123 % of control (endpoint: mean survival time, dose: 50.0 mg/kg/injection, schedule: Q01DX001 (ip), vehicle: saline); 104 % of control (endpoint: mean survival time, dose: 50.0 mg/kg/injection, schedule: Q01DX009 (ip), vehicle: carboxymethylcellulose (CMC)); 116 % of control under setting [6]; 103 % of control (endpoint: mean survival time, dose: 75.0 mg/kg/injection, schedule: Q01DX009 (ip), vehicle: carboxymethylcellulose (CMC)); 113 % of control (endpoint: mean survival time, dose: 112.0 mg/kg/injection, schedule: Q01DX001 (ip), vehicle: saline); 116 % of control (endpoint: mean survival time, dose: 112.5 mg/kg/injection, schedule: Q01DX001 (ip), vehicle: carboxymethylcellulose (CMC)). In addition, where the note is “endpoint: mean survival time, dose: 150.0 mg/kg/injection, schedule: Q01DX001 (ip), vehicle: carboxymethylcellulose (CMC)”, the T/C was 117 % of control.
As for `Nc1ccn(C2OC(CO)C(OC3OC4COC(c5ccccc5)OC4C(O)C3O)C(O)C2O)c(=O)n1` (configuration not stated), the T/C was 105 % of control (endpoint: mean survival time, dose: 22.5 mg/kg/injection, schedule: Q01DX001 (ip), vehicle: carboxymethylcellulose (CMC)); 100 % of control (endpoint: mean survival time, dose: 45.0 mg/kg/injection, schedule: Q01DX001 (ip), vehicle: carboxymethylcellulose (CMC)); 116 % of control (endpoint: mean survival time, dose: 90.0 mg/kg/injection, schedule: Q01DX001 (ip), vehicle: carboxymethylcellulose (CMC)); 97 % of control (endpoint: mean survival time, dose: 180.0 mg/kg/injection, schedule: Q01DX001 (ip), vehicle: carboxymethylcellulose (CMC)).
`O=C(O)c1ccccc1C(=O)c1ccc(F)cc1`: the T/C under setting [3] is 96 % of control, the T/C under setting [4] is 102 % of control and the T/C under setting [5] is 93 % of control.
